In brackets after ≈: the same amount, converted by molar mass.
Tests used:
Staphylococcus aureus [1] = test: Antimicrobial activity against methicillin- and quinolone-sensitive Staphylococcus aureus ARC516; format: functional
Streptococcus pneumoniae = test: Antimicrobial activity against Streptococcus pneumoniae ARC548; format: functional
[2] = Inhibition of Staphylococcus aureus thymidylate kinase
[3] = Inhibition of Streptococcus pneumoniae thymidylate kinase
Staphylococcus aureus [4] = test: Antimicrobial activity against methicillin- and quinolone-resistant Staphylococcus aureus ARC517; format: functional
[5] = Distribution co-efficient, log D of the compound; settings: octanol/water
Plasma = test: Unbound fraction in human plasma; format: ADME, cell-free
[6] = Intrinsic clearance in rat liver microsomes; format: ADME, Microsome; settings: read-out: CLH
[7] = test system: Staphylococcus haemolyticus; test: Antimicrobial activity against Staphylococcus haemolyticus; format: functional
[8] = Cytotoxicity against sheep erythrocytes assessed hemolysis; format: cell-based, Ovis aries; settings: erythrocyte
[9] = test system: Staphylococcus lugdunensis; test: Antimicrobial activity against Staphylococcus lugdunensis; format: functional
Streptococcus pyogenes = test: Antimicrobial activity against Streptococcus pyogenes ARC838; format: functional
Cytochrome P450 2D6 = Cytochrome P450 2D6 (Homo sapiens, UniProt P10635); test: Inhibition of CYP2D6 (unknown origin); format: ADME
Enterococcus faecium = test: Antimicrobial activity against linezolid-resistant Enterococcus faecium ARC1239; format: functional
Haemophilus influenzae = test: Antimicrobial activity against Haemophilus influenzae ARC446; format: functional
Cytochrome P450 2C9 = Cytochrome P450 2C9 (Homo sapiens, UniProt P11712); test: Inhibition of CYP2C9 (unknown origin); format: ADME
Streptococcus agalactiae = test: Antimicrobial activity against Streptococcus agalactiae; format: functional
Klebsiella pneumoniae = test: Antimicrobial activity against Klebsiella pneumoniae ARC1865; format: functional
Cytochrome P450 3A4 = Cytochrome P450 3A4 (Homo sapiens, UniProt P08684); test: Inhibition of CYP3A4 (unknown origin); format: ADME
[10] = Cytotoxicity against human A549 cells; format: cell-based; settings: read-out: MIC
Enterococcus faecalis = test: Antimicrobial activity against vancomycin-resistant Enterococcus faecalis ARC1618; format: functional
Escherichia coli = test: Antimicrobial activity against Escherichia coli ARC523; format: functional
[11] = Equilibrium solubility of the compound at pH 7.4; format: physicochemical; settings: buffer
[12] = Inhibition of Escherichia coli thymidylate kinase
[13] = test system: Staphylococcus epidermidis; test: Antimicrobial activity against Staphylococcus epidermidis ARC323; format: functional
[14] = Intrinsic clearance in rat hepatocytes assessed per million cells; format: ADME, cell-based, Hepatocyte; settings: read-out: CLH
[15] = biological target: Voltage-gated inwardly rectifying potassium channel KCNH2 (Homo sapiens, UniProt Q12809); test: Inhibition of human ERG
Cytochrome P450 2C19 = Cytochrome P450 2C19 (Homo sapiens, UniProt P33261); test: Inhibition of CYP2C19 (unknown origin); format: ADME
Cytochrome P450 1A2 = Cytochrome P450 1A2 (Homo sapiens, UniProt P05177); test: Inhibition of CYP1A2 (unknown origin); format: ADME
Pseudomonas aeruginosa = test: Antimicrobial activity against Pseudomonas aeruginosa ARC545; format: functional
Thymidylate kinase = Thymidylate kinase (Homo sapiens, UniProt P23919); test: Inhibition of human thymidylate kinase
Candida albicans = test: Antimicrobial activity against Candida albicans; format: functional

Sequence of Cytochrome P450 3A4 (P08684 whole entry): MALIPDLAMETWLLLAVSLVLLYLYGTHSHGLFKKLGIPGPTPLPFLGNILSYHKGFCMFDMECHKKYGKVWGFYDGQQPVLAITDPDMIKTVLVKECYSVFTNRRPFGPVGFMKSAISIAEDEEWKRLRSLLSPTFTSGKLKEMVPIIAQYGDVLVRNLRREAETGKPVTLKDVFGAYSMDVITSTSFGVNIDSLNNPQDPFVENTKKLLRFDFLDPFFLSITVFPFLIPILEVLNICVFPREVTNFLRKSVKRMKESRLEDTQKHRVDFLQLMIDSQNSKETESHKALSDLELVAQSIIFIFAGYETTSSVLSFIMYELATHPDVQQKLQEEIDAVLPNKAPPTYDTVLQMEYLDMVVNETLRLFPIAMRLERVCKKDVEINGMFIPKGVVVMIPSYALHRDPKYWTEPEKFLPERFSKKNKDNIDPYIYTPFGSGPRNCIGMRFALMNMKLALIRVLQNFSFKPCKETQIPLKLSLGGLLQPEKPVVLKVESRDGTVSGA
Sequence of Cytochrome P450 2C9 (P11712 whole entry): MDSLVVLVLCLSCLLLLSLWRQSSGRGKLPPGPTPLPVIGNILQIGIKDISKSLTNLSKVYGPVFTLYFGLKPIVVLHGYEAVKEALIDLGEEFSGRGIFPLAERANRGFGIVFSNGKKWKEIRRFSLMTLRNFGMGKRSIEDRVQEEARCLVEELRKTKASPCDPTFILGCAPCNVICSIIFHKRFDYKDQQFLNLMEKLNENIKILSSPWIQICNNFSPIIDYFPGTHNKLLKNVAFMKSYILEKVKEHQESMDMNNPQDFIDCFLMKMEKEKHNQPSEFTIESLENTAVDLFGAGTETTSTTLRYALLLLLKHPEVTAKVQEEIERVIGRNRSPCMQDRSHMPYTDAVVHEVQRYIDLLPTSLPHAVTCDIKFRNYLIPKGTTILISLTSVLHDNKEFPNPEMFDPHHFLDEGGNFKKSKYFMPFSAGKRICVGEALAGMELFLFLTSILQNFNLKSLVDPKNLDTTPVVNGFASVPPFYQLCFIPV
Sequence of Cytochrome P450 2D6 (P10635 whole entry): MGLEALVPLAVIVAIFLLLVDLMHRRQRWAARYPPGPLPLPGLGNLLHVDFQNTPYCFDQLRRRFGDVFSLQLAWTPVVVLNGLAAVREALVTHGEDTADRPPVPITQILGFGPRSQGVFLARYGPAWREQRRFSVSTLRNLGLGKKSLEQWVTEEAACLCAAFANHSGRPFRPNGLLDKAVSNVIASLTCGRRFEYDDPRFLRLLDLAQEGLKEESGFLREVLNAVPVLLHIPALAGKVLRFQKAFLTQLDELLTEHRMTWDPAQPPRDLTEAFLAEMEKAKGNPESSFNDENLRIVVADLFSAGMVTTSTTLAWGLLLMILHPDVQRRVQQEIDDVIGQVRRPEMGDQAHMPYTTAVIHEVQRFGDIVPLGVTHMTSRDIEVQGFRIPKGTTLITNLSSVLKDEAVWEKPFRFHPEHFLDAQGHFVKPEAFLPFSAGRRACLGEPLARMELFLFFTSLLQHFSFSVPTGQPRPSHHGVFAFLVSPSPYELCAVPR
Sequence of Cytochrome P450 1A2 (P05177 whole entry): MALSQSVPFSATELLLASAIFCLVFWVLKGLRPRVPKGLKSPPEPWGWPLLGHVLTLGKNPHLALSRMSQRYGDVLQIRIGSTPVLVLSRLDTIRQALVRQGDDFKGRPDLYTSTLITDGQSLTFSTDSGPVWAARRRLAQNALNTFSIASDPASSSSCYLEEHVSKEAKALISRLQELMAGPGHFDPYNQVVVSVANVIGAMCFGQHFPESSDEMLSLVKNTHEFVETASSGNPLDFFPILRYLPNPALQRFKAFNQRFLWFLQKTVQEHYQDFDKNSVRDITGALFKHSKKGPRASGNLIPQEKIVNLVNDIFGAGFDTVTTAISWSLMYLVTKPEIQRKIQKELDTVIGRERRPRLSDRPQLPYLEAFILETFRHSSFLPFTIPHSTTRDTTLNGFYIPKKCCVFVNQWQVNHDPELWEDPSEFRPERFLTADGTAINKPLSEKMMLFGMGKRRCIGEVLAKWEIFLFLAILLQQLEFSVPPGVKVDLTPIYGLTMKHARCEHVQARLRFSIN
Sequence of Voltage-gated inwardly rectifying potassium channel KCNH2 (Q12809 whole entry): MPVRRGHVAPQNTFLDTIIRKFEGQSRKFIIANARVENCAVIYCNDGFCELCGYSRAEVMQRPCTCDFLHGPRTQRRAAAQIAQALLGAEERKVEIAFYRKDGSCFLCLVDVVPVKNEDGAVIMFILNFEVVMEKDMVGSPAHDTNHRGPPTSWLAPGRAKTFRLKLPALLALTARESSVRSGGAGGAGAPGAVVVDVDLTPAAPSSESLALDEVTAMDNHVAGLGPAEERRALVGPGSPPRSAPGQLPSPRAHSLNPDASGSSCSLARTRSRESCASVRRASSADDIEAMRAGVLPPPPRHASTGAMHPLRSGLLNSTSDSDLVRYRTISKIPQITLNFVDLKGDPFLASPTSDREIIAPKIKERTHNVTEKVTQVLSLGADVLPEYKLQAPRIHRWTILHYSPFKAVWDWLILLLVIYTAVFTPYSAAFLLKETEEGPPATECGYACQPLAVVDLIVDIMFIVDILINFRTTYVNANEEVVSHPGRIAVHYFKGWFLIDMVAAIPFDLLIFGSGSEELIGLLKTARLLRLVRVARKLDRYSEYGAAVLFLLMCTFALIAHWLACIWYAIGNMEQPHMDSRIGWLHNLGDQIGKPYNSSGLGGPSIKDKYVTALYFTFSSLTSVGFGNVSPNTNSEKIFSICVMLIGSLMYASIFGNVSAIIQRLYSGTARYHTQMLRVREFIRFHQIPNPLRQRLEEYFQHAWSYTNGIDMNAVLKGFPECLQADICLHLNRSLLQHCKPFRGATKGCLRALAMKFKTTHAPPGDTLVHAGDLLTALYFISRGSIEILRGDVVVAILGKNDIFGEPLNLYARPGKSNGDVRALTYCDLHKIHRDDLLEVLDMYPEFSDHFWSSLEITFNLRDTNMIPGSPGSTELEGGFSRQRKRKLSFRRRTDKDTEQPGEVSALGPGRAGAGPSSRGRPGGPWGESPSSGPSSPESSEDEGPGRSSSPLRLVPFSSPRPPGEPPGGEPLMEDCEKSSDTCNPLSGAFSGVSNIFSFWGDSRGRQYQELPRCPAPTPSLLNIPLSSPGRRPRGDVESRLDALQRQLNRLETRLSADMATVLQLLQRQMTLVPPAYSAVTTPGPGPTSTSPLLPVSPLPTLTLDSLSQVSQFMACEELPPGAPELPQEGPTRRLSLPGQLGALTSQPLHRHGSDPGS
Sequence of Thymidylate kinase (P23919 whole entry): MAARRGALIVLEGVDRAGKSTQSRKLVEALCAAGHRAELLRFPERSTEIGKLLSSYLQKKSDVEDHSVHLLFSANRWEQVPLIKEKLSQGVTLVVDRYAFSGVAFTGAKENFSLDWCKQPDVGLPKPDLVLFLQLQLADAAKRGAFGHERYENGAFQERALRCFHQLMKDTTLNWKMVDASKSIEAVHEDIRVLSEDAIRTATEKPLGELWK
Sequence of Cytochrome P450 2C19 (P33261 whole entry): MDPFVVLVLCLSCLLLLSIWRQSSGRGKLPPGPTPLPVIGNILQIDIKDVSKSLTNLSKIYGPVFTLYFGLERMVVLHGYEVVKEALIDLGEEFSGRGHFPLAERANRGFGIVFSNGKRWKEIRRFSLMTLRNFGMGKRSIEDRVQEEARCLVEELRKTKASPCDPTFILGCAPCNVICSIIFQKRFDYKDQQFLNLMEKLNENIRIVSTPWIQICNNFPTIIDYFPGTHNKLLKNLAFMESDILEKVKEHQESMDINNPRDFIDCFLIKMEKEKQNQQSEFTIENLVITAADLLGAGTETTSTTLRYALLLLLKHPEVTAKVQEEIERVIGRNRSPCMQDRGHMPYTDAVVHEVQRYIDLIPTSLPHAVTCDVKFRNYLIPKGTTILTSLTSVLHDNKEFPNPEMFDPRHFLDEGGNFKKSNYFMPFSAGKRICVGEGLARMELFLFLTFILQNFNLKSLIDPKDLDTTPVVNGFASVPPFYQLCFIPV

Cc1cn([C@H]2CCCN(S(=O)(=O)c3cccc(Oc4ccccc4)c3)C2)c(=O)[nH]c1=O showed an MIC (Staphylococcus aureus [1]) greater than 64 µg/mL, an MIC (Streptococcus pneumoniae) greater than 64 µg/mL and an IC50 [2] of 81500 nM. The IC50 [3] was 20900 nM.
Cc1cn([C@H]2CCCN(S(=O)(=O)c3cccc(Oc4ccc(Cl)c(Cl)c4)c3)C2)c(=O)[nH]c1=O showed an MIC (Staphylococcus aureus [1]) of 4 µg/mL (≈ 7.84 µM), an MIC (Staphylococcus aureus [4]) of 4 µg/mL (≈ 7.84 µM) and an MIC (Streptococcus pneumoniae) of 4 µg/mL (≈ 7.84 µM). For the same compound, the logD [5] was greater than 3.5, the IC50 [2] was 2780 nM and the IC50 [3] was 292 nM.
For Cc1cn([C@H]2CCCN(S(=O)(=O)c3ccc(C(=O)O)c(Oc4ccc(Cl)c(Cl)c4)c3)C2)c(=O)[nH]c1=O, the MIC (Staphylococcus aureus [1]) was greater than 64 µg/mL, the MIC (Staphylococcus aureus [4]) was greater than 64 µg/mL and the MIC (Streptococcus pneumoniae) was 4 µg/mL (≈ 7.21 µM). It also gave a logD [5] of -0.9, an IC50 [2] of 23 nM and an IC50 [3] of less than 6 nM.
Cc1cccc(Oc2cc(S(=O)(=O)N3CCC[C@H](n4cc(C)c(=O)[nH]c4=O)C3)ccc2C(=O)O)c1 gave an MIC (Staphylococcus aureus [1]) greater than 64 µg/mL, an MIC (Staphylococcus aureus [4]) greater than 64 µg/mL and an MIC (Streptococcus pneumoniae) of 16 µg/mL (≈ 32 µM). The logD [5] was -1.6 and the IC50 [3] was 6 nM.
Cc1cn([C@H]2CCCN(S(=O)(=O)c3ccc(C(=O)O)c(Oc4cccc(Cl)c4)c3)C2)c(=O)[nH]c1=O gave an MIC (Staphylococcus aureus [1]) greater than 64 µg/mL, an MIC (Staphylococcus aureus [4]) greater than 64 µg/mL and an MIC (Streptococcus pneumoniae) of 2 µg/mL (≈ 3.85 µM). The logD [5] was -1.3, the IC50 [2] was 2 nM and the IC50 [3] was 1 nM.
Cc1cn([C@H]2CCCN(S(=O)(=O)c3ccc(C(N)=O)c(Oc4cccc(Cl)c4)c3)C2)c(=O)[nH]c1=O showed an MIC (Staphylococcus aureus [1]) greater than 64 µg/mL, an MIC (Staphylococcus aureus [4]) greater than 64 µg/mL and an MIC (Streptococcus pneumoniae) of 2 µg/mL (≈ 3.85 µM). The logD [5] was 2, the IC50 [2] was 784 nM and the IC50 [3] was 10 nM.
Work on Cc1cn([C@H]2CCCN(S(=O)(=O)c3ccc(C#N)c(Oc4cccc(Cl)c4)c3)C2)c(=O)[nH]c1=O yielded an MIC (Staphylococcus aureus [1]) greater than 64 µg/mL, an MIC (Staphylococcus aureus [4]) greater than 64 µg/mL and an MIC (Streptococcus pneumoniae) of 2 µg/mL (≈ 3.99 µM). For the same compound, the logD [5] was 1, the IC50 [2] was 530 nM and the IC50 [3] was 23 nM.
With COc1ccc(S(=O)(=O)N2CCC[C@H](n3cc(C)c(=O)[nH]c3=O)C2)cc1Oc1cccc(Cl)c1 the MIC (Staphylococcus aureus [1]) was greater than 64 µg/mL, the MIC (Staphylococcus aureus [4]) was 16 µg/mL (≈ 31.6 µM) and the MIC (Streptococcus pneumoniae) was 2 µg/mL (≈ 3.95 µM). For the same compound, the IC50 [2] was 358 nM and the IC50 [3] was 6 nM.
For Cc1cn([C@H]2CCCN(S(=O)(=O)c3ccc(O)c(Oc4ccccc4)c3)C2)c(=O)[nH]c1=O, the MIC (Staphylococcus aureus [1]) was 16 µg/mL (≈ 35 µM), the MIC (Staphylococcus aureus [4]) was 16 µg/mL (≈ 35 µM) and the MIC (Streptococcus pneumoniae) was 0.5 µg/mL (≈ 1.09 µM). The logD [5] was 1.5, the IC50 [2] was 255 nM and the IC50 [3] was 14 nM.
With Cc1cn([C@H]2CCCN(S(=O)(=O)c3ccc(O)c(Oc4cccc(Cl)c4)c3)C2)c(=O)[nH]c1=O the Fu (Plasma) was 1%, the MIC (Staphylococcus aureus [1]) was 0.25 µg/mL (≈ 0.508 µM) and the MIC (Staphylococcus aureus [4]) was 0.5 µg/mL (≈ 1.02 µM). For the same compound, the MIC90 (Staphylococcus aureus [4]) was 0.5 µg/mL (≈ 1.02 µM), the microsomal CLint [6] was 27 µL/min/mg and the MIC [7] was 0.03 µg/mL (≈ 0.061 µM). It also gave an MIC [8] greater than 64 µg/mL, an MIC [9] of 0.016 µg/mL (≈ 0.0325 µM) and an MIC90 (Streptococcus pyogenes) of 0.5 µg/mL (≈ 1.02 µM). The IC50 (Cytochrome P450 2D6) was greater than 20000 nM, the MIC (Enterococcus faecium) was 0.13 µg/mL (≈ 0.264 µM) and the MIC (Haemophilus influenzae) was greater than 64 µg/mL. The IC50 (Cytochrome P450 2C9) was greater than 20000 nM, the MIC (Streptococcus pneumoniae) was 0.03 µg/mL (≈ 0.061 µM) and the MIC90 (Streptococcus pneumoniae) was 0.06 µg/mL (≈ 0.122 µM). For the same compound, the logD [5] was 2.1, the MIC (Streptococcus agalactiae) was 0.5 µg/mL (≈ 1.02 µM) and the MIC (Klebsiella pneumoniae) was greater than 64 µg/mL. For the same compound, the IC50 (Cytochrome P450 3A4) was greater than 20000 nM, the MCC [10] was greater than 64 µg/mL and the MIC (Enterococcus faecalis) was 0.5 µg/mL (≈ 1.02 µM). The MIC (Escherichia coli) was greater than 64 µg/mL, the solubility thermodynamic [11] was 193 µM (≈ 94.9 µg/mL) and the IC50 [12] was 4500 nM. The MIC [13] was 2 µg/mL (≈ 4.07 µM), the hepatocyte CLint [14] was 45 µL/min/1e6 cells and the IC50 [15] was 27000 nM. It also gave an IC50 (Cytochrome P450 2C19) greater than 20000 nM, an IC50 (Cytochrome P450 1A2) greater than 20000 nM and an MIC (Pseudomonas aeruginosa) greater than 64 µg/mL. For the same compound, the IC50 (Thymidylate kinase) was greater than 200000 nM and the MIC (Candida albicans) was greater than 64 µg/mL.
For Cc1cn([C@H]2CCCN(S(=O)(=O)c3ccc(O)c(Oc4cccc(F)c4)c3)C2)c(=O)[nH]c1=O, the MIC (Staphylococcus aureus [1]) was 16 µg/mL (≈ 33.6 µM), the MIC (Staphylococcus aureus [4]) was 16 µg/mL (≈ 33.6 µM) and the MIC (Streptococcus pneumoniae) was 0.25 µg/mL (≈ 0.526 µM). The logD [5] was 1.6, the IC50 [2] was 57 nM and the IC50 [3] was 4 nM.
For Cc1cn([C@H]2CCCN(S(=O)(=O)c3ccc(O)c(Oc4ccc(Cl)cc4)c3)C2)c(=O)[nH]c1=O, the MIC (Staphylococcus aureus [1]) was 1 µg/mL (≈ 2.03 µM), the MIC (Staphylococcus aureus [4]) was 2 µg/mL (≈ 4.07 µM) and the MIC (Streptococcus pneumoniae) was 0.5 µg/mL (≈ 1.02 µM). For the same compound, the logD [5] was 2.1, the IC50 [2] was 18 nM and the IC50 [3] was 8 nM.
In the case of Cc1cc(Oc2cc(S(=O)(=O)N3CCC[C@H](n4cc(C)c(=O)[nH]c4=O)C3)ccc2O)ccc1Cl, the MIC (Staphylococcus aureus [1]) is reported as 1 µg/mL (≈ 1.98 µM), the MIC (Staphylococcus aureus [4]) is reported as 0.5 µg/mL (≈ 0.988 µM) and the MIC (Streptococcus pneumoniae) is reported as 0.25 µg/mL (≈ 0.494 µM). The logD [5] was 2.4, the IC50 [2] was 3 nM and the IC50 [3] was 18 nM.
Work on Cc1cn([C@H]2CCCN(S(=O)(=O)c3ccc(O)c(Oc4cccc(Br)c4)c3)C2)c(=O)[nH]c1=O yielded an MIC (Staphylococcus aureus [1]) of 1 µg/mL (≈ 1.86 µM), an MIC (Staphylococcus aureus [4]) of 0.5 µg/mL (≈ 0.932 µM) and an MIC (Streptococcus pneumoniae) of 0.1 µg/mL (≈ 0.186 µM). For the same compound, the logD [5] was 2.3, the IC50 [2] was 2 nM and the IC50 [3] was 0.7 nM.
With Cc1cn([C@H]2CCCN(S(=O)(=O)c3ccc(O)c(Oc4cc(F)cc(Cl)c4)c3)C2)c(=O)[nH]c1=O the MIC (Staphylococcus aureus [1]) was 1 µg/mL (≈ 1.96 µM), the MIC (Staphylococcus aureus [4]) was 1 µg/mL (≈ 1.96 µM) and the MIC (Streptococcus pneumoniae) was 0.05 µg/mL (≈ 0.0981 µM). It also gave an IC50 [2] of 12 nM and an IC50 [3] of 0.7 nM.
In the case of Cc1cn([C@H]2CCCN(S(=O)(=O)c3ccc(O)c(Oc4cccc(C(F)(F)F)c4)c3)C2)c(=O)[nH]c1=O, the MIC (Staphylococcus aureus [1]) is reported as 2 µg/mL (≈ 3.81 µM), the MIC (Staphylococcus aureus [4]) is reported as 2 µg/mL (≈ 3.81 µM) and the MIC (Streptococcus pneumoniae) is reported as 0.1 µg/mL (≈ 0.19 µM). For the same compound, the logD [5] was 2.3, the IC50 [2] was 64 nM and the IC50 [3] was 3 nM.
Cc1cn([C@H]2CCCN(S(=O)(=O)c3ccc(CO)c(Oc4cccc(Cl)c4)c3)C2)c(=O)[nH]c1=O gave an MIC (Staphylococcus aureus [1]) of 32 µg/mL (≈ 63.2 µM), an MIC (Staphylococcus aureus [4]) of 64 µg/mL (≈ 126 µM) and an MIC (Streptococcus pneumoniae) of 2 µg/mL (≈ 3.95 µM). The IC50 [2] was 610 nM and the IC50 [3] was 28 nM.
With C[C@H]1COc2c(N3CCN(C)CC3)c(F)cc3c(=O)c(C(=O)O)cn1c23.C[C@H]1COc2c(N3CCN(C)CC3)c(F)cc3c(=O)c(C(=O)O)cn1c23.O [LEVOFLOXACIN] the MIC90 (Staphylococcus aureus [4]) was 16 µg/mL and the MIC (Streptococcus pyogenes) was 0.25 µg/mL.
